Measured values taken from ChEMBL document CHEMBL1140522, “Peptidomimetic inhibitors of farnesyltransferase with high in vitro activity and significant cellular potency” (Bioorg Med Chem Lett, 2007).
The source made the active and inactive calls. The calls are words filed in the database; no cut-off is given here.

Key:
[1] = Inhibition of farnesyl transferase; design: species or system Homo sapiens
Homo sapiens [2] = species: Homo sapiens; experiment: Effect on FTase mediated Ras farnesylation in human aortic smooth muscle cells at 250 uM after 72 hrs by Western blot analysis
[3] = Antiproliferative effect on human aortic smooth muscle cells; assay type: functional
Homo sapiens [4] = species: Homo sapiens; experiment: Effect on FTase mediated Ras farnesylation in human aortic smooth muscle cells at 2 uM after 72 hrs by Western blot analysis

SMILES | IC50 [1] [µM] | other results
COc1ccccc1-c1c(CN[C@H](CCSC)C(=O)O)cccc1NC(=O)C[C@@H]1COc2ncccc2O1 | > 1000 | –
CSCC[C@H](NCc1cccc(NC(=O)C[C@@H]2COc3ncccc3O2)c1-c1ccccc1C)C(=O)O (mixture of isomers) | 16 | –
COc1ccccc1-c1cc(OC[C@H]2COc3ncccc3O2)ccc1C(=O)N[C@@H](CCSC)C(=O)O | 0.053 | –
COc1ccccc1-c1c(CN[C@@H](CCSC)C(=O)O)cccc1NC(=O)C[C@H]1COc2ncccc2O1 | 302 | –
COc1ccccc1-c1c(CN[C@@H](CCSC)C(=O)O)cccc1NC(=O)C[C@@H]1COc2ncccc2O1 (mixture of isomers) | 151 | –
CSCC[C@@H](NCc1cccc(NC(=O)C[C@H]2COc3ncccc3O2)c1-c1ccccc1C)C(=O)O (mixture of isomers) | > 1000 | –
CSCC[C@H](NC(=O)c1ccc(OC[C@@H]2COc3ncccc3O2)cc1-c1ccccc1C)C(=O)O | 0.045 | Activity (Homo sapiens [2]): Active; IC50 [3]: 58.8 µM
CCC(C)(C)C(=O)O[C@H]1C[C@@H](C)C=C2C=C[C@H](C)[C@H](CC[C@@H]3C[C@@H](O)CC(=O)O3)[C@H]21 | – | Activity (Homo sapiens [4]): Active
COc1ccccc1-c1c(CN[C@H](CCSC)C(=O)O)cccc1NC(=O)C[C@H]1COc2ncccc2O1 (mixture of isomers) | 843 | –
CSCC[C@@H](NC(=O)c1ccc(OC[C@H]2COc3ncccc3O2)cc1-c1ccccc1C)C(=O)O | 0.075 | IC50 [3]: 238 µM
CSCC[C@@H](NCc1cccc(NC(=O)C[C@@H]2COc3ncccc3O2)c1-c1ccccc1C)C(=O)O | > 1000 | –
COc1ccccc1-c1cc(OC[C@H]2COc3ncccc3O2)ccc1C(=O)N[C@H](CCSC)C(=O)O | > 1000 | –
CSCC[C@H](NCc1cccc(NC(=O)C[C@H]2COc3ncccc3O2)c1-c1ccccc1C)C(=O)O | 12 | –
COc1ccccc1-c1cc(OC[C@@H]2COc3ncccc3O2)ccc1C(=O)N[C@@H](CCSC)C(=O)O (mixture of isomers) | 0.055 | –
CSCC[C@H](NC(=O)c1ccc(OC[C@H]2COc3ncccc3O2)cc1-c1ccccc1C)C(=O)O | 0.05 | IC50 [3]: 158 µM
COc1ccccc1-c1cc(OC[C@@H]2COc3ncccc3O2)ccc1C(=O)N[C@H](CCSC)C(=O)O | 0.112 | –
CSCC[C@@H](NC(=O)c1ccc(OC[C@@H]2COc3ncccc3O2)cc1-c1ccccc1C)C(=O)O | 0.053 | Activity (Homo sapiens [2]): Active; IC50 [3]: 16.8 µM
